Measurements from patent publication US20190262357A1, “PREVENTATIVE OR THERAPEUTIC AGENT FOR PULMONARY HY[…] CRUDE DRUG COMPONENT” (TOHOKU UNIVERSITY, priority 2016, published 2019).

Tested on: pulmonary artery smooth muscle cells derived from patients with idiopathic pulmonary arterial hypertension (IPAH-PASMCs)
Assay: Suppression of proliferation of IPAH-PASMCs (MTT assay)
Assay type: cell-based, human
Conditions: 0.001-5 μM celastrol, 48 hours
Method: The ability of celastrol to suppress the proliferation of pulmonary artery smooth muscle cells from patients with pulmonary hypertension (IPAH-PASMCs) was assessed. Specifically, first, on day −1, 66 μl each of pulmonary artery smooth muscle cells derived from patients with idiopathic pulmonary arterial hypertension (IPAH-PASMCs) suspended in a 10% FBS medium (DMEM supplemented with 10% FBS) were seeded in a 96-well plate at 50,000 cells/ml. 24 Hours after the cell seeding (the time point was defined as day 0), 33 μl each of 0.003 μM, 0.03 μM, 0.3 μM, 3 μM, and 15 μM solutions of celastrol in 10% FBS containing 1% DMSO were added to the wells so that the final concentrations were 0.001 μM, 0.01 μM, 0.1 μM, 1 μM, and 5 μM, respectively. As a control, 33 μl of 10% FBS containing 1% DMSO was added in place of celastrol. On day 0 (immediately before the addition of celastrol), a cell viability was confirmed by performing MTT assay using CellTiter 96 (trademark) AQueous One Solution Cell Proliferation Assay (promega). Further, on day 2, i.e., 48 hours after the addition of celastrol, the MTT assay was performed again to observe a change in cell viability. Thus, a cell proliferation-suppressing effect was assessed.

Structure (SMILES): CC1=C(O)C(=O)C=C2C1=CC=C1[C@@]2(C)CC[C@@]2(C)[C@@H]3C[C@](C)(C(=O)O)CC[C@]3(C)CC[C@]12C [celastrol, (2R,4aS,6aS,12bR,14aS,14bR)-10-hydroxy-2,4a,6a,9,12b,14a-hexamethyl-11-oxo-1,2,3,4,4a,5,6,6a,11,12b,13,14,14a,14b-tetradecahydropicene-2-carboxylic acid]
- cell proliferation-suppressing effect: a cell proliferation-suppressing effect on pulmonary artery smooth muscle cells derived from patients with idiopathic pulmonary arterial hypertension was obtained
